Biological target: T1, RORγ-LBD (Homo sapiens, UniProt P51449)
T1 construct: made in house; host or cells: SF9 insect cells, baculovirus; crude lysate used
T1 sequence (P51449 269-508 limits assumed): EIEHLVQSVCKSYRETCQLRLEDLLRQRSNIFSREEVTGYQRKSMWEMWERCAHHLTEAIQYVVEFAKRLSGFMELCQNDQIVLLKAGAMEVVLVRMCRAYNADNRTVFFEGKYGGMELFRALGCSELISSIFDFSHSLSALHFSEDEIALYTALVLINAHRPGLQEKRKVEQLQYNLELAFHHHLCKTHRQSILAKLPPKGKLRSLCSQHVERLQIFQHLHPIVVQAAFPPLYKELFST
Assay: RORγ-Ligand Binding Domain (LBD) TR-FRET Assay
Format: biochemical
Details: recombinant HIS-tagged RORγ-LBD lysate, biotinylated SRC1-2 LXXLL peptide
Method: Recombinant, HIS-tagged RORγ-LBD was expressed in SF9 cells using a baculovirus expression system. Cells were lysed and the lysate was used as a source for RORγ-LBD for the assay. A 1:80 dilution of RORγ-LBD lysate in assay buffer (25 mM HEPES pH 7.0, 100 mM NaCl, 0.01% Tween, 0.1% BSA) was prepared and 5 μL was added to each well (RORγ-LBD final concentration ˜3 nM). Control wells received lysate from SF9 cells not expressing RORγ-LBD.
Compounds to be tested were diluted to 100× final test concentration in DMSO and further diluted to 4× final test concentration using assay buffer to provide the test compound mixture. An aliquot (5 μL) of the test compound mixture was added to each well.
A 4× stock of biotinylated-LXXLL peptide from SRC1-2 (Biotin-[…]) was prepared in assay buffer and a 5 μL aliquot added to each well (450 nM final concentration). A 4× solution of europium tagged anti-HIS antibody (2 nM final concentration) and APC conjugated streptavidin (60 nM final concentration) were prepared and a 5 μL aliquot added to each well.
The final assay mixture was incubated for 4 hours to overnight, and the fluorescence signal was measured on an Envision plate reader: (Excitation filter=340 nm; APC emission=665 nm; Europium emission=615 nm; dichroic mirror=D400/D630; delay time=100 μs, integration time=200 μs).
EC50 values for test compounds were calculated from the quotient of the fluorescence signal at 665 nm divided by the fluorescence signal at 615 nm using GraphPad Prism software

Structure (SMILES)	EC50
O=C(Nc1ccc2c(c1)C(S(=O)(=O)c1ccc(C(F)(F)F)cc1)CCC2)c1c(F)cccc1C(F)(F)F (stereo not shown) [IV-2]	< 150 nM
O=C(Nc1ccc2c(c1)C(S(=O)(=O)c1ccc(C(F)(F)F)cc1)CCC2)c1c(F)cccc1F (stereo not shown) [IV-4]	< 150 nM
O=C(Nc1ccc2c(c1)C(S(=O)(=O)c1ccc(C(F)(F)F)cc1)CCC2)c1c(F)cccc1Cl (stereo not shown) [Compound 1, 2-Chloro-6-fluoro-N-[8-(4-trifluoromethylbenzenesulfonyl)-5,6,7,8-tetrahydronaphthalen-2-yl]benzamide]	< 150 nM
O=C(Nc1ccc2c(c1)C(S(=O)(=O)c1ccc(C(F)(F)F)cc1)CCC2)c1c(Cl)cccc1C(F)(F)F (stereo not shown) [IV-1]	< 150 nM

— patent publication US9266827B2, “Bicyclic sulfone compounds for inhibition of RORgamma activity and the treatment of disease” (Merck Sharp & Dohme Corp., priority 2012, dated 2016)
